Test results as given in patent US8673914B2, “Use of phosphodiesterase inhibitors for treating multidrug resistance” (St. John's University, priority 2011, dated 2014).
Read-outs that look alike come from different tables or passages of the source. Marks after values point to notes of the source that are not given here.

Columns and labels:
S1/FLV5000 = assay: cells; format: cell-based
Procedure: (§1) The ABCB1-overexpressing drug resistant cell line KB-V1 (generously provided by Dr. Gottesman, NCI, NIH) was established by a stepwise concentration increase of vinblastine in the culture medium of KB-3-1 cells and subsequently culturing these cells in medium with 1 μg/mL of vinblastine. An ABCC1-overexpressing MDR cell line, KB-CV60, was also derived from KB-3-1 cells and was maintained in medium with 1 μg/mL of cepharanthine and 60 ng/mL of vincristine. Both KB-C2 and KB-CV60 cell lines were kindly provided by Dr. Akiyama (Kagoshima University, Japan). HEK293/pcDNA3.1, ABCG2-482-R5, ABCG2-482-G2, and ABCG2-482-T7 cells were established by selection with 2 mg/mL G418 after transfecting HEK293 with either (1) empty pcDNA3.1 vector or (2) pcDNA3.1 vector containing full length ABCG2 coding either (2a) wild-type arginine (R) or mutant (2b) glycine (G) or (2c) threonine (T) at amino acid position 482, respectively. The wild-type ABCG2-overexpressing drug-resistant cell line MCF-7/Flv1000 was cultured in the medium with 1 μM of flavopiridol. […] Another G482 mutant ABCG2-overexpressing drug resistant cell line, S1-M1-80, was maintained in the medium with 80 μM of mitoxantrone. […] All the cell lines were grown as adherent monolayers in flasks with DMEM (Dulbecco's modified Eagle's medium) culture medium (Hyclone Co.) containing 10% bovine serum at 37° C. in a humidified atmosphere of 5% CO2.
(§2) Cells in 96-well plates were preincubated with or without the reversal agents for 1 h and then different concentrations of chemotherapeutic drugs were added into designated wells. After 68 h of incubation, MTT solution (4 mg/mL) was added to each well, and the plate was further incubated for 4 h, allowing viable cells to change the yellow-colored MTT into dark-blue formazan crystals. Subsequently the medium was discarded, and […] of DMSO was added into each well to dissolve the formazan crystals. The absorbance was determined at 570 nm by an OPSYS MR Microplate Reader from DYNEX Technologies, Inc.

MCF7/ADVP3000 = assay: MTT cytotoxicity/reversal assay (Example 2); format: cell-based; details: alone
Procedure: as §1, §2

MCF-7 = assay: MTT cytotoxicity/reversal assay (Example 2); format: cell-based
Procedure: as §1, §2

S1 = assay: MTT cytotoxicity/reversal assay (Example 2); format: cell-based; details: alone
Procedure: as §1, §2

HEK293/pcDNA3 = assay: MTT cytotoxicity/reversal assay (Example 2); format: cell-based; details: alone
Procedure: as §1, §2

S1-M1-80 = assay: MTT cytotoxicity/reversal assay (Example 2); format: cell-based; details: alone
Procedure: as §1, §2

MCF-7/Flv1000 = assay: MTT cytotoxicity/reversal assay (Example 2); format: cell-based; details: MCF-7/Flv1000, alone
Procedure: as §1, §2

HEK/ABCG2-T7 = assay: MTT cytotoxicity/reversal assay (Example 2); details: HEK/ABCG2-T7, alone
Procedure: as §1, §2

HEK/ABCG2-R5 = assay: MTT cytotoxicity/reversal assay (Example 2); details: HEK/ABCG2-R5, alone
Procedure: as §1, §2

HEK/ABCG2-G2 = assay: MTT cytotoxicity/reversal assay (Example 2); details: HEK/ABCG2-G2, alone
Procedure: as §1, §2

HEK293/pcDNA3.1 = assay: MTT cytotoxicity/reversal assay (Example 1); format: cell-based
Procedure: (§3) The KB-C2 and KB-3-1 were kindly provided by Dr. Akiyama (Kagoshima University, Japan). HEK293-pcDNA3.1 and wild-type HEK/ABCG2 transfected cells were established by selection with G418 after transfecting HEK293 with either (1) empty pcDNA3.1 vector or (2) pcDNA3.1 vector containing full length of ABCG2 coding arginine (R) at amino acid position 482, and were then cultured in a medium with 2 mg/ml of G418 (ABCG2-482-R2 cells). Similarly, the HEK/MRP1 (ABCC1) and HEK/ABCB1 cells were generated by transfecting the HEK293 cells with either the MRP1 expression vector or the ABCB1 expression vector. All of the cell lines were grown in Dulbecco's modified Eagle's medium (DMEM) supplemented with 10% bovine serum, 100 units/ml penicillin, and […] streptomycin in a humidified incubator containing 5% CO2 at 37° C.
(§4) The MTT assay was used to assess cytotoxicity. The cultured cells were harvested with trypsin and resuspended in a final concentration of 4×10^3 cells/well for KB-3-1; 7.5×10^3 cells/well for KB-C2; and 8×10^3 for all of the other cell lines used in this study. Cells were seeded evenly in 96-well multiplates. […] After 68 h of incubation, 20 μl of the MTT solution (4 mg/ml) was added to each well, and the plate was further incubated for 4 h at 37° C., allowing viable cells to convert the yellow-colored MTT into dark-blue formazan crystals. Subsequently, the medium was discarded, and 100 μl of DMSO was added into each well to dissolve the formazan crystals, generating purple color. The absorbance was determined at 570 nm by an OPSYS Microplate Reader from DYNEX Technologies, Inc. (Chantilly, Va.). […] The degree of the reversal of multidrug resistance (MDR) was calculated by dividing the IC50 of an anticancer drug, e.g., an antineoplastic or chemotherapeutic drug (agent, compound), in a cell type in the absence of a reversal agent by the IC50 of the anticancer drug in the same cell type in the presence of the reversal agent. The IC50 values were calculated from survival curves using the Bliss method.

HEK/MRP1 (ABCC1) = assay: MTT cytotoxicity/reversal assay (Example 1); format: cell-based; details: +10 μM reversal agent
Procedure: The KB-C2 and KB-3-1 were kindly provided by Dr. Akiyama (Kagoshima University, Japan). […] Similarly, the HEK/MRP1 (ABCC1) and HEK/ABCB1 cells were generated by transfecting the HEK293 cells with either the MRP1 expression vector or the ABCB1 expression vector. All of the cell lines were grown in Dulbecco's modified Eagle's medium (DMEM) supplemented with 10% bovine serum, 100 units/ml penicillin, and […] streptomycin in a humidified incubator containing 5% CO2 at 37° C.
as §4

ABCG2-482-R2 (ABCG2) = assay: MTT cytotoxicity/reversal assay (Example 1)
Procedure: as §3, §4

HEK 293-pcDNA-3.1 = assay: MTT cytotoxicity assay (Example 4); format: cell-based
Procedure: (§5) The MRP7 cDNA was generously provided by Dr. Gary Kruh (University of Illinois, Chicago, Ill.) and inserted into the pcDNA3.1 expression vector. […] Individual colonies were selected in medium containing G418 (1 mg/ml) and cultured for further analysis.
(§6) MTT colorimetric assay was performed to analyze the drug sensitivity as previously described (Shi et al. (2007) Cancer Res. 67:11012-20). HEK293-pcDNA3.1 and HEK/MRP7 cells were seeded into 96-well plates in triplicate at 6000 cells/well.
(§7) After drug incubation of 68 h, 20 μl MTT solution (4 mg/ml) was added into each well. […] The Bliss method was used to calculate the IC50 values according to survival curves.

[1] = MTT cytotoxicity assay (Example 4); format: cell-based; details: human; HEK/MRP7; alone; read-out: IC50 of vinblastine;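 for fold-resistance, vinblastine: drug IC50 in HEK/MRP7 divided by IC50 in parental HEK293-pcDNA3.1 cells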
Procedure: as §5, §6, §7

HEK/MRP7 = assay: MTT cytotoxicity assay (Example 4); format: cell-based; details: alone;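 for fold-resistance, vinblastine: drug IC50 in HEK/MRP7 divided by IC50 in parental HEK293-pcDNA3.1 cells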
Procedure: as §5, §6, §7

KB-3-1 = assay: MTT cytotoxicity/reversal assay (Example 2); format: cell-based, human; details: alone
Procedure: as §1, §2

KB-V1 = assay: MTT cytotoxicity/reversal assay (Example 2); format: cell-based, human; details: alone
Procedure: as §1, §2

KB-C2 = assay: MTT cytotoxicity/reversal assay (Example 2); format: cell-based, human; details: alone
Procedure: as §1, §2

[2] = Homo sapiens, read-out: IC50 of mitoxantrone

For O=C1c2c(O)ccc(O)c2C(=O)c2c(NCCNCCO)ccc(NCCNCCO)c21 [Mitoxantrone, mitoxantrone], the “fold-resistance, mitoxantrone” value (S1/FLV5000) was “(3.0)”, the IC50 (S1/FLV5000; S1/FLV5000, alone, read-out: IC50 of mitoxantrone) was 1120 ± 144 nM and the IC50 (MCF7/ADVP3000; [2]) was 279000 ± 6030 nM. The “fold-resistance, mitoxantrone” value (MCF7/ADVP3000) was “(36.4)”, the IC50 (MCF-7; Homo sapiens, MCF7, alone, read-out: IC50 of mitoxantrone) was 7660 ± 193 nM and the “fold-resistance, mitoxantrone” value (MCF-7; alone) was “(1.0)^c”. For the same compound, the “fold-resistance, mitoxantrone” value (S1) was “(1.0)^c”, the IC50 (S1; read-out: IC50 of mitoxantrone) was 380 ± 41.6 nM and the IC50 (HEK293/pcDNA3; [2]) was 35.6 ± 3 nM. The “fold-resistance, mitoxantrone” value (HEK293/pcDNA3) was “(1.0)^c”, the IC50 (S1-M1-80; [2]) was 224000 ± 8600 nM and the “fold-resistance, mitoxantrone” value (S1-M1-80) was “(559.3)”. For the same compound, the “fold-resistance, mitoxantrone” value (MCF-7/Flv1000) was “(66.7)”, the IC50 (MCF-7/Flv1000; read-out: IC50 of mitoxantrone) was 511000 ± 16700 nM and the “fold-resistance, mitoxantrone” value (HEK/ABCG2-T7) was “(23.7)”. For the same compound, the “fold-resistance, mitoxantrone” value (HEK/ABCG2-R5) was “(12.8)” and the “fold-resistance, mitoxantrone” value (HEK/ABCG2-G2) was “(31.0)”.
For O=C(Nc1cccc2c(=O)cc(-c3nn[nH]n3)oc12)c1ccc(OCCCCc2ccccc2)cc1 [ONO-1078], the “fold reversal, vincristine” value (HEK293/pcDNA3.1; HEK293/pcDNA3.1 (Table 6), +10 μM reversal agent) was “(1.33)” and the “fold reversal, vincristine” value (HEK/MRP1 (ABCC1)) was “(5.9)”.
In the case of CCc1c2c(nc3ccc(O)cc13)-c1cc3c(c(=O)n1C2)COC(=O)[C@]3(O)CC [SN-38, 7-ethyl-10-hydroxy-20(S)-camptothecin], the “fold reversal, SN-38” value (HEK293/pcDNA3.1; HEK293/pcDNA3.1, alone) is reported as “(1.00)”, the IC50 (HEK293/pcDNA3.1; HEK293/pcDNA3.1, alone, read-out: IC50 of SN-38) is reported as 116 ± 15.1 nM and the “fold-resistance, SN-38” value (S1/FLV5000; S1/FLV5000, alone) is reported as “(1.4)”. For the same compound, the IC50 (S1/FLV5000; S1/FLV5000, alone, read-out: IC50 of SN-38) was 344 ± 87.4 nM, the “fold reversal, SN-38” value (ABCG2-482-R2 (ABCG2); alone) was “(1.00)” and the IC50 (ABCG2-482-R2 (ABCG2); read-out: IC50 of SN-38, alone) was 3650 ± 547 nM. For the same compound, the “fold-resistance, SN-38” value (MCF7/ADVP3000) was “(11.3)”, the IC50 (MCF7/ADVP3000; read-out: IC50 of SN-38) was 14300 ± 1620 nM and the “fold-resistance, SN-38” value (MCF-7; alone) was “(1.0)^c”. The IC50 (MCF-7; alone, read-out: IC50 of SN-38) was 1220 ± 263 nM, the “fold-resistance, SN-38” value (S1) was “(1.0)^c” and the IC50 (S1; read-out: IC50 of SN-38) was 245 ± 17 nM. For the same compound, the “fold-resistance, SN-38” value (HEK293/pcDNA3) was “(1.0)^c”, the IC50 (HEK293/pcDNA3; read-out: IC50 of SN-38) was 5.8 ± 0.2 nM and the “fold-resistance, SN-38” value (S1-M1-80) was “(14.4)”. For the same compound, the IC50 (S1-M1-80; read-out: IC50 of SN-38) was 3550 ± 1400 nM, the “fold-resistance, SN-38” value (MCF-7/Flv1000) was “(18.7)” and the IC50 (MCF-7/Flv1000; read-out: IC50 of SN-38) was 22800 ± 2000 nM. The “fold-resistance, SN-38” value (HEK/ABCG2-T7) was “(20.2)”, the IC50 (HEK/ABCG2-T7; read-out: IC50 of SN-38) was 117 ± 70.4 nM and the “fold-resistance, SN-38” value (HEK/ABCG2-R5) was “(22.1)”. For the same compound, the IC50 (HEK/ABCG2-R5; read-out: IC50 of SN-38) was 128 ± 88.2 nM, the “fold-resistance, SN-38” value (HEK/ABCG2-G2) was “(2.3)” and the IC50 (HEK/ABCG2-G2; read-out: IC50 of SN-38) was 204 ± 136 nM.
In the case of CC[C@]1(O)C[C@@H]2CN(CCc3c([nH]c4ccccc34)[C@@](C(=O)OC)(c3cc4c(cc3OC)N(C)[C@H]3[C@@](O)(C(=O)OC)[C@H](OC(C)=O)[C@]5(CC)C=CCN6CC[C@]43[C@@H]65)C2)C1 [Vinblastine, vinblastine], the “fold-resistance, vinblastine” value (HEK 293-pcDNA-3.1; HEK 293-pcDNA-3.1, alone) is reported as “(1.0)”, the IC50 (HEK 293-pcDNA-3.1; read-out: IC50 of vinblastine) is reported as 11.2 ± 1.23 nM and the IC50 at 68 h [1] is reported as 56.3 ± 4.61 nM. The “fold-resistance, vinblastine” value (HEK/MRP7) was “(5.03)”, the “fold-resistance, vinblastine” value (KB-3-1) was “(1.0)^c” and the “fold-resistance, vinblastine” value (KB-V1) was “(120.1)”. For the same compound, the “fold-resistance, vinblastine” value (KB-C2) was “(10.3)”.
